Data on ten compounds can be found in patent publication US20190282692A1, “SELECTIVE LOCAL INHIBITION OF TNFR1-MEDIATED FUNCTIONS AT THE SITE OF ANTIGEN/ALLERGEN PRESENTATION” (priority 2012, published 2019).

One data set concerns NF-kappa B translocation. The conditions noted are these: read-out: concentration for 50% inhibition of NF-kappa B translocation; cited from earlier work.
Data set [1] concerns CD4+ T cells purified from human peripheral blood. Conditions: cited from earlier work.
The next data set relates to IL-4 gene transcription. Conditions: read-out: concentration for 50% inhibition of IL-4 gene transcription; cited from earlier work.
Data set [2] relates to isolated rat cardiomyocytes. The conditions noted are these: cited from earlier work; for reproduction of the effects of in vivo NAC treatment (glutathione repletion, unmasking of TNFR2-mediated effects): 50 μmol/L; for protection against deleterious effects of TNF-alpha on contraction: preincubation 2-3 hours, 50 μM GSM or exogenously added NAC, cardiomyocytes from control rats.

The conditions of data set [3]: cited from earlier work.
Data set [4] relates to purified tonsillar B cells. Conditions: 20 mM NAC; cited from earlier work.
The conditions of data set [5]: 1800 mg/day oral, one year, added to standard therapy; cited from earlier work.
For data set [6] the following is noted: 8 days, cited from earlier work.
Data set [7] concerns T cells purified from human peripheral blood. The conditions noted are these: 20 mM NAC, Con A 2.5 μg/ml, 40 hours; cited from earlier work.
The conditions of data set [8]: cited from earlier work. The source holds these as a separate data set.
A further data set has as its system left ventricle. The conditions noted are these: 3-day NAC treatment 120 mg/kg/day, 2-month post-myocardial infarction rats; cited from earlier work.
The test system of data set [9] is T cells purified from human peripheral blood. Conditions: 10 mM NAC, after two passages; cited from earlier work.
The subject of data set [10] is purified peripheral blood T cells. Conditions: 20 mM NAC, Con A 10 μg/ml; cited from earlier work.
The test system of another data set is resting T cells. The conditions noted are these: resting T cells from seven donors, 3 day period, NAC 1 mM to 20 mM; cited from earlier work.
The conditions of data set [11]: 600 mg to 1000 mg NAC three times daily orally, 4 weeks; cited from earlier work.
Data set [12] has as its system purified peripheral blood T cells. Conditions: cited from earlier work.
The subject of data set [13] is purified tonsillar B cells. Conditions: dose-dependent, significant with 0.5 mM, maximal with 20 mM NAC, 14 days; cited from earlier work.
The subject of data set [14] is TNFR1-mediated activation of NF-kappa B. The conditions noted are these: cited from earlier work.
Data set [15] relates to TNFR2-mediated activation of NF-kappa B. The conditions noted are these: high concentrations; cited from earlier work.
For data set [16] the following is noted: in vivo; cited from earlier work.
Data set [17] deals with allergen-induced airways hyper-responsiveness. Conditions: cited from earlier work.
The subject of data set [18] is late phase asthmatic response to allergen challenge. Conditions: cited from earlier work.
The subject of another data set is TNF. In kind it is in vivo, human. Conditions: for side effects of anti-TNF treatment in the patient: one patient with ankylosing spondylitis; for development of allergen-specific sIgG4 during specific immunotherapy: one vespid venom-allergic patient, SIT 2003-2009. The source says: Case report from the Allergy Center of the Technical University of Munich (TUM), Germany. A patient (at the first visit in July 2003) with systemic vespid venom allergy was under anti-TNF therapy with the soluble TNF receptor etanercept (Enbrel®) for ankolysing spondylitis since July 2002 (see FIG. 9). In July/2003, the patient experienced a mild to moderate anaphylactic reaction (grade 1-2 according to Ring and Messmer) with generalized urticaria, subjective breathing problems and dizziness after a wasp sting.
No sIgE was detectable against Ves v 2 and Ves v 3.
Similar results were also obtained in the ELISA analysis, where sIgG4 levels were detectable already in 2003 before SIT mainly against Ves v 1 and Ves v 5, which decreased slightly over time during SIT.
Discussion. […] Even amongst the group of SIT therapy failures/non-responders, we routinely observed an increase of sIgG4 levels to at least one allergen. Thus, this patient was the first and only one ever without any increase in sIgG4 to any of the vespid venom allergens. […] To our knowledge this was the only patient worldwide that received immunotherapy under anti-TNF inhibition treatment. Since there are several lines of evidence that TNFR2-mediated signaling is essential for the induction of tolerance, inhibition of TNFR2 appears to be responsible for the inhibitory effect of anti-TNF-alpha therapy on the efficacy of specific immunotherapy.

For another data set, the target named is T1, TNF-alpha (Mus musculus, UniProt P06804).
T1 construct: host or cells: mouse, in vivo
T1 sequence (P06804 80-235 limits assumed): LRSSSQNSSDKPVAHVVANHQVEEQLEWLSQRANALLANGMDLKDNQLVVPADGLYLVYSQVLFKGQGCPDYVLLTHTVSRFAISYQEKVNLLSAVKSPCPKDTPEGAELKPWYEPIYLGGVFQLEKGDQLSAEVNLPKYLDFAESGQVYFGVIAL
Conditions: without inhibiting Teff activation; cited from earlier work.

A further data set relates to C3 convertase. The conditions noted are these: cited from earlier work.

Values joined by “and” are separate entries in the source; they are usually repeats but may differ in a detail not shown here. Equal values may be shown once.

For the compound `CC(=O)Oc1ccccc1C(=O)O` [ASA, acetylsalicylic acid], in the data set with NF-kappa B translocation, the IC50 is approximately 3000 µM. For the same compound, in [1] (1 mM ASA), the “inhibition of IL-4 secretion” value is 47%. In [1] (ASA 0.1 mM-3 mM), the “production of IFNγ” value is given as “did not affect”, the “production of IL-2” value is “did not affect” and the “production of IL-13” value is “did not affect”. In addition, the IC50 in the data set on IL-4 gene transcription was approximately 1000 µM.

Consider `N[C@@H](CCC(=O)N[C@@H](CS)C(=O)NCC(=O)O)C(=O)O` [GSH, glutathione], for which the “reproduction of the effects of in vivo NAC treatment” value in [2] (incubation 2-3 hours, 10 mmol/L) is “could not reproduce the effects of in vivo NAC treatment”.

`CSC[C@H](NC(=O)CC[C@H](N)C(=O)O)C(=O)NCC(=O)O` [GSM, S-Methylglutathione]: the solubility in water in data set [3] was 2.61 g/liter and 8.1 mM. Besides, the “reproduction of the effects of in vivo NAC treatment (glutathione repletion, unmasking of TNFR2-mediated effects)” value in [2] (incubation 2-3 hours) is “reproduce the effects of in vivo NAC treatment”. Moreover, the “protection against deleterious effects of TNF-alpha on contraction” value in [2] is on record as “protected against the deleterious effects of TNF-alpha on contraction”.

With `CC(=O)N[C@@H](CS)C(=O)O` [NAC, N-acetyl-L-cysteine], the “increase in B cell proliferation” value in [4] is reported as “at least 5 fold”. In data set [5], the “primary end points including vital capacity” value was “better”. In [6] (drinking water 0.5 g/liter NAC), the “decrease of ovalbumin-specific IgE” value is on record as approximately 30% and the “decrease of ovalbumin-specific IgG1” value is approximately 30%. Also, the “synthesis of other Ig isotypes” value in data set [6] (drinking water 1 g NAC/liter) is “not significantly affected”. The “IgE and IgG1 antibody responses to ovalbumin” value in data set [6] (water containing 0.5-2.0 g/l NAC, 1 μg ovalbumin on aluminum hydroxide i.p.) is listed as “decreased”. In data set [7], the “enhancement of IL-2 production by T cells” value is on record as “approximately 1.5 fold”. Besides, in data set [8] (human, in vivo), the median tmax is on record as 1.0 h. In data set [8] (in most of the subjects), the highest non-toxic dose is recorded as 800 mg/m^2/day. Also, the “plasma t1/2” value in data set [8] (monoexponential plasma decay) is 2.4 h. Moreover, the “GSH content of the left ventricle, % of control level in sham rats” value with left ventricle is listed as 75%. Besides, in data set [9], the “stimulation of growth of peripheral blood T cell cultures” value is given as 4-6 fold. In addition, in [2] (incubation 2-3 hours), the “reproduction of the effects of in vivo NAC treatment (glutathione repletion, unmasking of TNFR2-mediated effects)” value is on record as “could not reproduce the effects of in vivo NAC treatment”. The “protection against deleterious effects of TNF-alpha on contraction” value in data set [2] is reported as “not protected”. Besides, in [10], the “increase in T cell proliferation” value is “approximately 4 fold”. For the same compound, the cytotoxicity result with resting T cells is listed as “nontoxic”. Also, in data set [11], the “GSH level in blood neutrophils, airway neutrophil count and elastase activity” value was “effective in augmenting the GSH level in blood neutrophils and decreasing the airway neutrophil count and elastase activity”. In addition, in data set [12] (0.5-20 mM NAC), the “IFNγ production by T cells” value is given as “not affected” and the “IL-5 production by T cells” value was “not affected”. The “IL-4 production by T cells” value in [12] (maximal at 20 mM NAC) is reported as “decreased in a dose-dependent manner”. For the same compound, the “IL-2 production by T cells” value in data set [12] (up to 5 mM NAC) was “enhanced”. Further, in data set [13], the “IgE production by B cells” value was “decreased” and the “IgG4 production by B cells” value is listed as “decreased”.

In the case of `O=C([O-])c1ccccc1O.[Na+]` [SA, sodium salicylate], in data set [14], the “salicylate dose required for inhibition of TNFR1-mediated activation of NF-kappa B” value was 10 to 20 mM. The “inhibition of TNFR2-mediated activation of NF-kappa B” value in data set [15] is given as “but not TNFR2-mediated activation of NF-kappa B”.

Consider `O=C(O)c1ccccc1O` [salicylate], for which the “level at which tinnitus may occasionally occur” value in data set [16] is not below 95 µg/mL.

With IL-4 (R121D/Y124D), the “cutaneous wheal response and circulating allergen-specific IgE” value in data set [17] (subcutaneous administration for 6 weeks or more) is “reduced”. For the same compound, the allergen-induced airways hyper-responsiveness result in data set [17] (subcutaneously or via nebulization) is reported as “protect allergic cynomolgus monkeys from allergen-induced airways hyper-responsiveness”. For the same compound, the “course of late asthmatic response after experimental allergen challenge” value in data set [18] (asthmatic patients) is listed as “positively affect”. In addition, the adverse events result in data set [18] (subcutaneous injection up to 30 mg for up to 13 weeks or inhalation up to 60 mg for up to 4 weeks) is on record as “few adverse events”.

In the case of etanercept, in the data set on TNF, the “side effects of anti-TNF treatment in the patient” value is reported as “increasing iritis symptoms” and the “development of allergen-specific sIgG4 during specific immunotherapy” value is “interferes with the development of allergen-specific sIgG4”. Also, at TNF-alpha, the “Teff-mediated Treg boost” value is reported as “significantly reduced the Teff-mediated Treg boost”.

With hC3: human complement component C3, in the data set with C3 convertase, the “half-life of C3 convertase” value is reported as 1.5 min.

As to infliximab, in the data set with TNF, the “side effects of anti-TNF treatment in the patient” value is given as “without major side effects” and the “development of allergen-specific sIgG4 during specific immunotherapy” value was “interferes with the development of allergen-specific sIgG4”.
